{
  "source": "ChEMBL document CHEMBL5523749",
  "about": "“Amphiphilic Heparinoids as Potent Antiviral Agents against SARS-CoV-2” (J Med Chem, 2024)",
  "key": {"SARS-CoV-2 [1]": {"system": "SARS-CoV-2", "format": "functional, organism-based, Severe acute respiratory syndrome coronavirus 2, G614, Vero E6"}, "SARS-CoV-2 [2]": {"system": "SARS-CoV-2", "conditions": "vero e6; call rule not given here"}, "[3]": {"system": "Respiratory syncytial virus", "assay": "Antiviral activity against RSV A2 strain infected in HEp-2 cells assessed as reduction in plaque number measured after 3 days incubation", "conditions": "human respiratory syncytial virus, A2, HEp-2, 72 h"}, "Human alphaherpesvirus 2": {"system": "Human alphaherpesvirus 2", "assay": "Antiviral activity against HSV2 infected in CMK AH1 cells assessed as reduction in plaque number measured after 2 days incubation", "conditions": "Human alphaherpesvirus 2, CMK AH1, 48 h"}, "Spike glycoprotein": {"molecular_target": "Spike glycoprotein (Severe acute respiratory syndrome coronavirus 2, UniProt P0DTC2)", "assay": "Binding affinity to RBD domain of SARS-CoV-2 spike protein assessed as dissociation constant by Isothermal Titration Calorimetry"}, "SARS-CoV-2 [4]": {"system": "SARS-CoV-2", "assay": "microbe, parasite or virus in culture", "conditions": "Severe acute respiratory syndrome coronavirus 2, D614, Vero C1008", "description": "Antiviral activity against SARS-CoV-2 D614 isolates infected in African green monkey Vero E6 cells assessed as reduction in plaque formation treated for 1 hr prior to infection with cells incubated for 30 mins by plaque reduction neutralization test"}, "Heparanase": {"molecular_target": "T1, Heparanase (Homo sapiens, UniProt Q9Y251)", "T1 sequence (Q9Y251 whole entry)": "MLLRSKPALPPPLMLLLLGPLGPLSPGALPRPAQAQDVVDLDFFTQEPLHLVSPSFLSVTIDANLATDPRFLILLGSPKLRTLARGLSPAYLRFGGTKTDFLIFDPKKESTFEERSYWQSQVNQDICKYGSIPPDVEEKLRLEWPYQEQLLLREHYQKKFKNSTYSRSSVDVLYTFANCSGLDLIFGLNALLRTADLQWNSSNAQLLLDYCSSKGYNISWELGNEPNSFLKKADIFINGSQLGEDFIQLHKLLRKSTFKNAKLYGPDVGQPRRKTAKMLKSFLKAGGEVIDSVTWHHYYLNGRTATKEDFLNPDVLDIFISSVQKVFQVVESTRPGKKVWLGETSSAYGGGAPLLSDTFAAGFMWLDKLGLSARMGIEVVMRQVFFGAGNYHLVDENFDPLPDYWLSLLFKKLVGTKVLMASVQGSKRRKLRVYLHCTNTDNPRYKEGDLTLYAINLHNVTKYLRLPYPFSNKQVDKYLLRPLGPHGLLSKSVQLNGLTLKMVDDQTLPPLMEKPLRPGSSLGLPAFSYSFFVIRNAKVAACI", "assay": "Inhibition of recombinant human heparanase expressed in Insect cells assessed as fondaparinux cleavage by measuring disaccharide product incubated for 18 to 21 hrs", "conditions": "insect cell"}, "[5]": {"conditions": "Severe acute respiratory syndrome coronavirus 2, G614, Vero C1008, read-out: IC50"}},
  "data": [
    {"smiles": "[N-]=[N+]=NCCCCCCCCCCC(=O)NCCCCCCCCCCCO[C@@H]1O[C@H](COS(=O)(=O)[O-])[C@@H](O[C@H]2O[C@H](COS(=O)(=O)[O-])[C@@H](O[C@H]3O[C@H](COS(=O)(=O)[O-])[C@@H](O[C@H]4O[C@H](COS(=O)(=O)[O-])[C@@H](OS(=O)(=O)[O-])[C@H](OS(=O)(=O)[O-])[C@H]4OS(=O)(=O)[O-])[C@H](OS(=O)(=O)[O-])[C@H]3OS(=O)(=O)[O-])[C@H](OS(=O)(=O)[O-])[C@H]2OS(=O)(=O)[O-])[C@H](OS(=O)(=O)[O-])[C@H]1OS(=O)(=O)[O-].[Na+].[Na+].[Na+].[Na+].[Na+].[Na+].[Na+].[Na+].[Na+].[Na+].[Na+].[Na+].[Na+]", "values": [
      {"measurement": "IC50", "setting": "SARS-CoV-2 [1]; [5]", "result": 84.1, "unit": "µg/mL"},
      {"measurement": "IC50", "setting": "SARS-CoV-2 [2]", "result": "Not Active"}
    ]},
    {"smiles": "CC(C)CCC[C@@H](C)[C@H]1CC[C@H]2[C@@H]3CC[C@H]4C[C@@H](O[C@@H]5O[C@H](COS(=O)(=O)[O-])[C@@H](O[C@H]6O[C@H](COS(=O)(=O)[O-])[C@@H](O[C@H]7O[C@H](COS(=O)(=O)[O-])[C@@H](O[C@H]8O[C@H](COS(=O)(=O)[O-])[C@@H](OS(=O)(=O)[O-])[C@H](OS(=O)(=O)[O-])[C@H]8OS(=O)(=O)[O-])[C@H](OS(=O)(=O)[O-])[C@H]7OS(=O)(=O)[O-])[C@H](OS(=O)(=O)[O-])[C@H]6OS(=O)(=O)[O-])[C@H](OS(=O)(=O)[O-])[C@H]5OS(=O)(=O)[O-])CC[C@]4(C)[C@H]3CC[C@]12C.[Na+].[Na+].[Na+].[Na+].[Na+].[Na+].[Na+].[Na+].[Na+].[Na+].[Na+].[Na+].[Na+]", "values": [
      {"measurement": "IC50", "setting": "[3]", "result": "~1", "unit": "µg/mL"},
      {"measurement": "IC50", "setting": "Human alphaherpesvirus 2", "result": "~1", "unit": "µg/mL"},
      {"measurement": "Kd", "setting": "Spike glycoprotein", "result": 9.12, "unit": "µM"},
      {"measurement": "IC50", "setting": "SARS-CoV-2 [4]", "result": 29.6, "unit": "µg/mL"}
    ]},
    {"smiles": "O=C(CCCCCCCCCCn1cc(CNc2ccc([N+](=O)[O-])c3nonc23)nn1)NCCCCCCO[C@@H]1O[C@H](COS(=O)(=O)[O-])[C@@H](O[C@H]2O[C@H](COS(=O)(=O)[O-])[C@@H](O[C@H]3O[C@H](COS(=O)(=O)[O-])[C@@H](O[C@H]4O[C@H](COS(=O)(=O)[O-])[C@@H](OS(=O)(=O)[O-])[C@H](OS(=O)(=O)[O-])[C@H]4OS(=O)(=O)[O-])[C@H](OS(=O)(=O)[O-])[C@H]3OS(=O)(=O)[O-])[C@H](OS(=O)(=O)[O-])[C@H]2OS(=O)(=O)[O-])[C@H](OS(=O)(=O)[O-])[C@H]1OS(=O)(=O)[O-].[Na+].[Na+].[Na+].[Na+].[Na+].[Na+].[Na+].[Na+].[Na+].[Na+].[Na+].[Na+].[Na+]", "values": [
      {"measurement": "IC50", "setting": "SARS-CoV-2 [1]; [5]", "result": 16.1, "unit": "µg/mL"},
      {"measurement": "IC50", "setting": "SARS-CoV-2 [2]", "result": "Not Active"}
    ]},
    {"smiles": "CC(C)CCC[C@@H](C)[C@H]1CC[C@H]2[C@@H]3CC[C@H]4C[C@@H](O[C@@H]5O[C@@H](C(=O)O)[C@@H](O[C@@H]6O[C@@H](C(=O)O)[C@@H](OS(=O)(=O)O)[C@H](O)[C@H]6OS(=O)(=O)O)[C@H](O)[C@H]5OS(=O)(=O)O)CC[C@]4(C)[C@H]3CC[C@]12C", "values": [
      {"measurement": "IC50", "setting": "Heparanase", "result": "Not Active"},
      {"measurement": "IC50", "setting": "SARS-CoV-2 [4]", "result": 33.7, "unit": "µg/mL"}
    ]},
    {"smiles": "CCCCCCCCCCCCCCCCCC(=O)NCCCO[C@@H]1O[C@H](COS(=O)(=O)[O-])[C@@H](O[C@H]2O[C@H](COS(=O)(=O)[O-])[C@@H](O[C@H]3O[C@H](COS(=O)(=O)[O-])[C@@H](O[C@H]4O[C@H](COS(=O)(=O)[O-])[C@@H](O[C@H]5O[C@H](COS(=O)(=O)[O-])[C@@H](O[C@H]6O[C@H](COS(=O)(=O)[O-])C(OS(=O)(=O)[O-])[C@H](OS(=O)(=O)[O-])[C@H]6OS(=O)(=O)[O-])[C@H](OS(=O)(=O)[O-])[C@H]5OS(=O)(=O)[O-])[C@H](OS(=O)(=O)[O-])[C@H]4OS(=O)(=O)[O-])[C@H](OS(=O)(=O)[O-])[C@H]3OS(=O)(=O)[O-])[C@H](OS(=O)(=O)[O-])[C@H]2OS(=O)(=O)[O-])[C@H](OS(=O)(=O)[O-])[C@H]1OS(=O)(=O)[O-].[Na+].[Na+].[Na+].[Na+].[Na+].[Na+].[Na+].[Na+].[Na+].[Na+].[Na+].[Na+].[Na+].[Na+].[Na+].[Na+].[Na+].[Na+].[Na+]", "note": "(stereo not given in full)", "values": [
      {"measurement": "IC50", "setting": "SARS-CoV-2 [1]; vero e6", "result": "Not Active"},
      {"measurement": "IC50", "setting": "SARS-CoV-2 [2]", "result": "Not Active"}
    ]},
    {"smiles": "CC(C)CCC[C@@H](C)[C@H]1CC[C@H]2[C@@H]3CC[C@H]4C[C@@H](O[C@H]5O[C@H](COS(=O)(=O)[O-])[C@@H](O[C@H]6O[C@H](COS(=O)(=O)[O-])[C@@H](O[C@H]7O[C@H](COS(=O)(=O)[O-])[C@@H](O[C@H]8O[C@H](COS(=O)(=O)[O-])[C@@H](O[C@H]9O[C@H](COS(=O)(=O)[O-])[C@@H](O[C@H]%10O[C@H](COS(=O)(=O)[O-])[C@@H](OS(=O)(=O)[O-])[C@H](OS(=O)(=O)[O-])[C@H]%10OS(=O)(=O)[O-])[C@H](OS(=O)(=O)[O-])[C@H]9OS(=O)(=O)[O-])[C@H](OS(=O)(=O)[O-])[C@H]8OS(=O)(=O)[O-])[C@H](OS(=O)(=O)[O-])[C@H]7OS(=O)(=O)[O-])[C@H](OS(=O)(=O)[O-])[C@H]6OS(=O)(=O)[O-])[C@H](OS(=O)(=O)[O-])[C@H]5OS(=O)(=O)[O-])CC[C@]4(C)[C@H]3CC[C@]12C.[Na+].[Na+].[Na+].[Na+].[Na+].[Na+].[Na+].[Na+].[Na+].[Na+].[Na+].[Na+].[Na+].[Na+].[Na+].[Na+].[Na+].[Na+].[Na+]", "values": [
      {"measurement": "IC50", "setting": "SARS-CoV-2 [1]; [5]", "result": 21.7, "unit": "µg/mL"},
      {"measurement": "Kd", "setting": "Spike glycoprotein", "result": 1.87, "unit": "µM"},
      {"measurement": "IC50", "setting": "SARS-CoV-2 [4]", "result": 12.2, "unit": "µg/mL"}
    ]}
  ]
}
